Laboratory results taken from ChEMBL document CHEMBL3124915, “One-step semisynthesis of oleacein and the determination as a 5-lipoxygenase inhibitor” (J Nat Prod, 2014).

What was measured:
[1] = target: T1, Polyunsaturated fatty acid 5-lipoxygenase (Homo sapiens) (UniProt P09917); assay: Inhibition of human recombinant 5-lipoxygenase expressed in Escherichia coli Bl21 (DE3) using arachidonic acid as substrate preincubated at 10 uM for 10 mins before substrate addition measured after 10 mins by HPLC analysis
T1 sequence (whole entry): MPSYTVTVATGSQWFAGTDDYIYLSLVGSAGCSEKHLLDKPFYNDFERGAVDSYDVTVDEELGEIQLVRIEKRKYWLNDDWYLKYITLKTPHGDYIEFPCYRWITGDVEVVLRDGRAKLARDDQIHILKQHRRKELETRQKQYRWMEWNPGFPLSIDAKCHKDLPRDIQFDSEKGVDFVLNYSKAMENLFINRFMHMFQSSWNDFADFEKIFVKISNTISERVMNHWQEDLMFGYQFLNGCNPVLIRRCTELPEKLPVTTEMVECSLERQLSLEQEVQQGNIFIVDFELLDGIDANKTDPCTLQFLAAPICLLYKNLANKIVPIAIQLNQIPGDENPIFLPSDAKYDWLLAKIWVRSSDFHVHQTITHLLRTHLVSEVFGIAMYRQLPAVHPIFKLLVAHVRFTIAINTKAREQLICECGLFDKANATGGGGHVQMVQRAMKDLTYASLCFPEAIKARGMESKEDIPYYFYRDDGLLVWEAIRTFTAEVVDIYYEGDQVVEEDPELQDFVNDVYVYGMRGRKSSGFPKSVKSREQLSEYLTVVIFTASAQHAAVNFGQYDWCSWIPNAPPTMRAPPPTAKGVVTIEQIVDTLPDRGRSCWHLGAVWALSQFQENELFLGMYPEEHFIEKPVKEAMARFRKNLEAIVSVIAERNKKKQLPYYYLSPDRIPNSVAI

[2] = target: T2, Polyunsaturated fatty acid 5-lipoxygenase (Homo sapiens, UniProt P09917); assay: Inhibition of human recombinant 5-lipoxygenase using arachidonic acid as substrate preincubated for 10 mins before substrate addition measured after 10 mins by HPLC analysis
T2 sequence (P09917 whole entry): T1 sequence (whole entry)

Row | SMILES | inhibition [1] | IC50 [2]
1 | C/C=C1/[C@H](O[C@@H]2O[C@H](CO)[C@@H](O)[C@H](O)[C@H]2O)OC=C(C(=O)OC)[C@H]1CC(=O)OCCc1ccc(O)c(O)c1 | 35% | 
2 | C/C=C(/C=O)[C@@H](CC=O)CC(=O)OCCc1ccc(O)c(O)c1 | 90% | 2 µM
3 | C/C=C(/C=O)[C@@H](CC=O)CC(=O)OCCc1ccc(O)cc1 | 48% | 
4 | OCCc1ccc(O)c(O)c1 [HYDROXYTYROSOL] | 48% | 13 µM
5 | OCCc1ccc(O)cc1 | 20% | 
